Assay results published in patent US12409172B2, “Dosage regimen” (UNION therapeutics A/S, priority 2023, dated 2025).
Marks after values point to notes of the source that are not given here.

Test system: cytokines in psoriatic lesional skin
Assay: Skin tape strip biomarkers (Olink Target 96 Inflammation panel) in the phase 2b psoriasis study (Example 10)
Type: in vivo, human
Conditions: for log2FCH W16_L - BL_L, CCL3 / log2FCH W16_L - BL_L, CCL4 / log2FCH W16_L - BL_L, CCL20 / log2FCH W16_L - BL_L, CSF1 / log2FCH W16_L - BL_L, CXCL1 / log2FCH W16_L - BL_L, CXCL5 / log2FCH W16_L - BL_L, CXCL6 / log2FCH W16_L - BL_L, CXCL9 / log2FCH W16_L - BL_L, CXCL10 / log2FCH W16_L - BL_L, IFNγ / log2FCH W16_L - BL_L, IL8 / log2FCH W16_L - BL_L, IL12B / log2FCH W16_L - BL_L, IL17A / log2FCH W16_L - BL_L, IL18 / log2FCH W16_L - BL_L, IL18R1 / log2FCH W16_L - BL_L, IL. 17C / log2FCH W16_L - BL_L, MMP1 / log2FCH W16_L - BL_L, TNFRSF9 / log2FCH W16_L - BL_L, TNFSF14 / log2FCH W16_L - BL_L, TNFα / log2FCH W16_L - BL_L, TRAIL: Week 16 lesional vs baseline lesional skin
Text: Skin tape strip samples were taken from lesional and non-lesional skin at baseline and lesional skin at week 16 of patients participating in the phase 2b, dose-ranging study assessing oral modified release orismilast in adults with moderate-to-severe plaque psoriasis (NCT05190419) described in Example 3. Approximately twenty consecutive stratum corneum samples were collected from the same skin site by tape stripping (D-squames; Monaderm DS100) of both lesional and non-lesional skin at baseline and lesional skin at week 16. To extract the proteins from the tapes the first ten tapes were pooled together and used for subsequent protein extraction by incubation in 800 μL of PBS containing 0.2% Triton X-100 together with a mixture of protease inhibitors and incubated overnight at 4° C. under stirring at 1400 rpm in a thermo mixer (Eppendorf). The insoluble material was removed by filtration on 0.22 μm filters by centrifugation. The protein extracts were analyzed using the Olink® technology (Target 96 Inflammation panel). Protein extracts from patients treated with placebo, 20 mg orismilast BID, and 30 mg orismilast BID as described in Example 3 were analyzed.
OLINK data was analyzed in R 2023.09.0+463 using a linear mixed effect model (OlinkAnalyse and Ime4) to estimate log 2 fold changes between Week 16 lesional skin versus baseline lesional skin and baseline lesional versus baseline non-lesional skin levels. P-values were corrected for multiple testing using the Benjamini-Hochberg method. The data was further modeled according to a weight-based dosing regimen in which data of the 20 mg Orismilast BID arm was used for patients with a bodyweight at baseline of <100 kg and combined with using data of the 30 mg Orismilast BID arm for patients ≥100 kg, respectively (named “P3DR”).

[1] = P3DR (20 mg <100 kg and 30 mg >=100 kg combined)

O=C(Cc1c(Cl)c[n+]([O-])cc1Cl)c1ccc(OC(F)F)c2c1OC1(CCS(=O)(=O)CC1)O2 [orismilast, 2-(3,5-dichloro-1-oxidopyridin-1-ium-4-yl)-1-[7-(difluoromethoxy)-1′,1′-dioxospiro[1,3-benzodioxole-2,4′-thiane]-4-yl]ethanone]
log2FCH W16_L - BL_L, CCL3 (20 mg BID): −2.68 ***
log2FCH W16_L - BL_L, CCL4 (20 mg BID): −2.46 ***
log2FCH W16_L - BL_L, CCL20 (20 mg BID): −2.53 ***
log2FCH W16_L - BL_L, CSF1 (20 mg BID): −1.35 **
log2FCH W16_L - BL_L, CXCL1 (20 mg BID): −1.83 *
log2FCH W16_L - BL_L, CXCL5 (20 mg BID): −1.67 **
log2FCH W16_L - BL_L, CXCL6 (20 mg BID): −2.34 ***
log2FCH W16_L - BL_L, CXCL9 (20 mg BID): −2.40 ***
log2FCH W16_L - BL_L, CXCL10 (20 mg BID): −2.20 ***
log2FCH W16_L - BL_L, IFNγ (20 mg BID): −1.21 *
log2FCH W16_L - BL_L, IL8 (20 mg BID): −1.82 *
log2FCH W16_L - BL_L, IL12B (20 mg BID): −2.21 **
log2FCH W16_L - BL_L, IL17A (20 mg BID): −2.19 ***
log2FCH W16_L - BL_L, IL18 (20 mg BID): −2.10 **
log2FCH W16_L - BL_L, IL18R1 (20 mg BID): −1.25 **
log2FCH W16_L - BL_L, IL. 17C (20 mg BID): −2.49 ***
log2FCH W16_L - BL_L, MMP1 (20 mg BID): −2.41 **
log2FCH W16_L - BL_L, TNFRSF9 (20 mg BID): −1.45 ***
log2FCH W16_L - BL_L, TNFSF14 (20 mg BID): −1.38 *
log2FCH W16_L - BL_L, TNFα (20 mg BID): −1.92 ***
log2FCH W16_L - BL_L, TRAIL (20 mg BID): −1.40 **
log2FCH W16_L - BL_L, CCL3 (30 mg BID): −3.42 ***
log2FCH W16_L - BL_L, CCL4 (30 mg BID): −2.83 ***
log2FCH W16_L - BL_L, CCL20 (30 mg BID): −3.36 ***
log2FCH W16_L - BL_L, CSF1 (30 mg BID): −1.97 ***
log2FCH W16_L - BL_L, CXCL1 (30 mg BID): −2.84 ***
log2FCH W16_L - BL_L, CXCL5 (30 mg BID): −2.26 ***
log2FCH W16_L - BL_L, CXCL6 (30 mg BID): −3.15 ***
log2FCH W16_L - BL_L, CXCL9 (30 mg BID): −3.32 ***
log2FCH W16_L - BL_L, CXCL10 (30 mg BID): −2.89 ***
log2FCH W16_L - BL_L, IFNγ (30 mg BID): −2.02 ***
log2FCH W16_L - BL_L, IL8 (30 mg BID): −2.76 ***
log2FCH W16_L - BL_L, IL12B (30 mg BID): −3.38 ***
log2FCH W16_L - BL_L, IL17A (30 mg BID): −2.66 ***
log2FCH W16_L - BL_L, IL18 (30 mg BID): −3.46 ***
log2FCH W16_L - BL_L, IL18R1 (30 mg BID): −1.99 ***
log2FCH W16_L - BL_L, IL. 17C (30 mg BID): −3.39 ***
log2FCH W16_L - BL_L, MMP1 (30 mg BID): −3.30 ***
log2FCH W16_L - BL_L, TNFRSF9 (30 mg BID): −2.03 ***
log2FCH W16_L - BL_L, TNFSF14 (30 mg BID): −2.23 ***
log2FCH W16_L - BL_L, TNFα (30 mg BID): −2.48 ***
log2FCH W16_L - BL_L, TRAIL (30 mg BID): −2.04 ***
log2FCH W16_L - BL_L, CCL3 [1]: −3.60 ***
log2FCH W16_L - BL_L, CCL4 [1]: −3.14 ***
log2FCH W16_L - BL_L, CCL20 [1]: −3.22 ***
log2FCH W16_L - BL_L, CSF1 [1]: −1.86 ***
log2FCH W16_L - BL_L, CXCL1 [1]: −2.34 ***
log2FCH W16_L - BL_L, CXCL5 [1]: −2.25 ***
log2FCH W16_L - BL_L, CXCL6 [1]: −3.02 ***
log2FCH W16_L - BL_L, CXCL9 [1]: −3.24 ***
log2FCH W16_L - BL_L, CXCL10 [1]: −2.94 ***
log2FCH W16_L - BL_L, IFNγ [1]: −1.91 ***
log2FCH W16_L - BL_L, IL8 [1]: −2.42 ***
log2FCH W16_L - BL_L, IL12B [1]: −3.09 ***
log2FCH W16_L - BL_L, IL17A [1]: −2.66 ***
log2FCH W16_L - BL_L, IL18 [1]: −2.96 ***
log2FCH W16_L - BL_L, IL18R1 [1]: −1.83 ***
log2FCH W16_L - BL_L, IL. 17C [1]: −3.20 ***
log2FCH W16_L - BL_L, MMP1 [1]: −3.31 ***
log2FCH W16_L - BL_L, TNFRSF9 [1]: −1.98 ***
log2FCH W16_L - BL_L, TNFSF14 [1]: −2.08 ***
log2FCH W16_L - BL_L, TNFα [1]: −2.50 ***
log2FCH W16_L - BL_L, TRAIL [1]: −1.91 ***
expression of key disease driving cytokines in psoriatic lesions (oral orismilast for 16 weeks, 20 mg BID and 30 mg BID): significantly reduced
